According to US20120082632A1, “Topical drug delivery system with dual carriers” (priority 2010, published 2012):

Tests used:
[1] = test system: Staph aureus, MRSA, Klebsiella pneumoniae, E. coli, Proteus vulgaris, Pseudomonas aeruginosa, Enterobacter cloacae, Acinetobacter lwoffi, Acinetobacter …; assay: In-vitro comparison of Lots with different anti-oxidant amounts and control agents (FIGS. 16-27); assay type: cell-based; conditions: identical size drops; FIG. 16 Staph aureus, FIG. 17 MRSA, FIGS. 18-24 gram-negative cultures, FIG. 25 Enterococcus faecalis
[2] = test system: mouse embryonic stem cells and embryoid bodies; conditions: cited from earlier work
HL-60 cells = conditions: cited from earlier work
[3] = test system: MRSA infection and Grade I diabetic ulcer of the left hallux with cellulitus; assay: Study III: human field study, diabetic foot lesion of great toe; assay type: in vivo; conditions: IV; 8 days following admission
Procedure: In this embodiment, the additional ingredient to hasten a third therapeutic tissue healing effect was added. This embodiment used vitamin D in a small but medically efficacious amount.

Row | Molecule | zones of inhibition of control agents compared with the formulations of the invention [1] | effect on mRNA and protein expression in epigenetic profiles [2] | amount at which desired cellular responses occurred (HL-60 cells) | subsequent retinoid-induced TGM2 expression after priming by pretreatment (HL-60 cells) | patient response to treatment for MRSA [3]
1 | CO[C@@]1(NC(=O)Cc2cccs2)C(=O)N2C(C(=O)O)=C(COC(N)=O)CS[C@@H]21 [Cefoxicillin] | considerably reduced zones of inhibition | – | – | – | –
2 | C[S+](C)[O-] [DMSO, dimethyl sulfoxide] | – | upregulation of mRNA and protein expression | less than 2% | increases | –
3 | CC[C@H]1OC(=O)[C@H](C)[C@@H](O[C@H]2C[C@@](C)(OC)[C@@H](O)[C@H](C)O2)[C@H](C)[C@@H](O[C@@H]2O[C@H](C)C[C@H](N(C)C)[C@H]2O)[C@](C)(O)C[C@@H](C)C(=O)[C@H](C)[C@@H](O)[C@]1(C)O [Erythromycin] | considerably reduced zones of inhibition | – | – | – | –
4 | CN[C@H](CC(C)C)C(=O)N[C@H]1C(=O)N[C@@H](CC(N)=O)C(=O)N[C@H]2C(=O)N[C@H]3C(=O)N[C@H](C(=O)N[C@H](C(=O)O)c4cc(O)cc(O)c4-c4cc3ccc4O)[C@H](O)c3ccc(c(Cl)c3)Oc3cc2cc(c3O[C@@H]2O[C@H](CO)[C@@H](O)[C@H](O)[C@H]2O[C@H]2C[C@](C)(N)[C@H](O)[C@H](C)O2)Oc2ccc(cc2Cl)[C@H]1O [Vancomycin] | considerably reduced zones of inhibition | – | – | – | did not respond
5 | vitamin D | – | – | about 100 nM | increases | –
